{"source": "patent US20240165423A1", "about": "“METHODS, SYSTEMS AND DEVICES FOR MODULATING CENTRAL NERVOUS SYSTEM INFLAMMATION AND POST-OPERATIVE PAIN” (Arizona Board of Regents on Behalf of the University of …, priority 2021, published 2024)", "tested_on": "elderly Sprague-Dawley rats with paw incision surgery", "conditions": "males and females; morphine 1 or 5 mg/kg s.c. 24 h after surgery", "data": [{"compound": "CN1CC[C@]23c4c5ccc(O)c4O[C@H]2[C@@H](O)C=C[C@H]3[C@H]1C5.O=S(=O)(O)O", "note": "[morphine, morphine sulfate]", "values": [{"measurement": "paw withdrawal thresholds of morphine-injected animals compared with saline-injected counterparts", "value": "higher than that of their saline-injected counterparts at up to 1.5 hours post-injection"}]}]}
